From patent US10450293B2, “Chemokine CXCR4 and CCR5 receptor modulators and uses related thereto” (Emory University, priority 2014, dated 2019)

tested on: HIV-1 Ba-L; experiment: HIV-1 MAGI assay, Ba-L (CCR5 / M-tropic); assay type: cell-based; settings: Human immunodeficiency virus 1, BAL; table of synthesized compounds; read-out: R5-IC50
Method: (§1) Bayesian statistical models were constructed using known CXCR4 and CCR5 active compounds from literature, and these models were used to virtually screen 5 million compounds in the Aldrich Marketplace Select library. The screen yielded 14 compounds of interest that were then tested for their anti-HIV activity for both tropisms in MAGI assay. Two compounds (FIG. 1, compounds 1 and 2) were active against both T and M tropic forms of HIV with IC50 values of ˜20 μM. These initial hits were followed-up by a second round of virtual screening based on similarity and sub-structure searching. Another 24 compounds were purchased from the same database and tested. […] This compound was then subjected to a series of biological evaluations to determine activity profile and confirm mechanism of action.

Q: For c1ccc(CCCC2CCN(Cc3ccccn3)CC2)cc1, which IC50 is on record?
A: 73.5 µM

Q: For c1ccc(Cc2cn[nH]c2C2CCN(Cc3ccccc3)CC2)cc1 [1-benzyl-4-(4-benzyl-1H-pyrazol-3-yl)piperidine], which IC50 is on record?
A: 18.1 µM

Q: For c1ccc(Cc2cn[nH]c2C2CCN(Cc3ccccn3)CC2)cc1 [2-((4-(4-benzyl-1H-pyrazol-3-yl)piperidin-1-yl)methyl)pyridine], which IC50 is on record?
A: 16.7 µM

Q: With FC(F)(F)c1ccc(CN2CCC(c3[nH]ncc3Cc3ccccc3)CC2)cc1 [4-(4-benzyl-1H-pyrazol-3-yl)-1-(4 (trifluoromethyl)benzyl)piperidine] as the compound, how does the IC50 read?
A: 9.72 µM

Q: For CS(=O)(=O)c1ccc(CN2CCC(c3[nH]ncc3Cc3ccccc3)CC2)cc1 [4-(4-benzyl-1H-pyrazol-3-yl)-1-(4-(methylsulfonyl)benzyl)piperidine], which IC50 is on record?
A: 2 µM

Q: For Clc1ccc(CN2CCC(c3[nH]ncc3Cc3ccccc3)CC2)cc1 [4-(4-benzyl-1H-pyrazol-3-yl)-1-(4-chlorobenzyl)piperidine], which IC50 is on record?
A: 5.61 µM

Q: With c1ccc(Cc2cn[nH]c2C2CCN(CC3CCCCC3)CC2)cc1 [4-(4-benzyl-1H-pyrazol-3-yl)-1-(cyclohexylmethyl)piperidine] as the compound, how does the IC50 read?
A: 49.4 µM

Q: With N#Cc1ccc(CN2CCC(c3[nH]ncc3Cc3ccccc3)CC2)cc1 [4-((4-(4-benzyl-1H-pyrazol-3-yl)piperidin-1-yl)methyl)benzonitrile] as the compound, how does the IC50 read?
A: 8.52 µM

Q: For c1ccc(Cc2cn[nH]c2C2CCN(Cc3ccc4ccccc4c3)CC2)cc1 [drawing 85, 4-(4-benzyl-1H-pyrazol-3-yl)-1-(naphthalen-2-ylmethyl)piperidine], which IC50 is on record?
A: 4.47 µM

Q: Which IC50 does the source give for c1ccc(Cc2cn[nH]c2C2CCN(Cc3cccc4ccccc34)CC2)cc1 [drawing 86, 4-(4-benzyl-1H-pyrazol-3-yl)-1-(naphthalen-1-ylmethyl)piperidine] here?
A: 7.63 µM

Q: With Clc1cnccc1CN1CCC(c2[nH]ncc2Cc2ccccc2)CC1 [drawing 92, 4-((4-(4-benzyl-1H-pyrazol-3-yl)piperidin-1-yl)methyl)-3-chloropyridine] as the compound, how does the IC50 read?
A: 0.14 µM

Q: For Clc1cc(CN2CCC(c3[nH]ncc3Cc3ccccc3)CC2)ccn1 [drawing 93, 4-((4-(4-benzyl-1H-pyrazol-3-yl)piperidin-1-yl)methyl)-2-chloropyridine], which IC50 is on record?
A: 0.17 µM

biological target: CXCR4 (Homo sapiens, UniProt P61073); experiment: Nef-M1:CXCR4 induced mitochondrial membrane depolarization (MMD) inhibition in Jurkat cells; assay type: cell-based; set-up: endogenous in cells; host or cells: Jurkat; settings: in words
Sequence (P61073 whole entry): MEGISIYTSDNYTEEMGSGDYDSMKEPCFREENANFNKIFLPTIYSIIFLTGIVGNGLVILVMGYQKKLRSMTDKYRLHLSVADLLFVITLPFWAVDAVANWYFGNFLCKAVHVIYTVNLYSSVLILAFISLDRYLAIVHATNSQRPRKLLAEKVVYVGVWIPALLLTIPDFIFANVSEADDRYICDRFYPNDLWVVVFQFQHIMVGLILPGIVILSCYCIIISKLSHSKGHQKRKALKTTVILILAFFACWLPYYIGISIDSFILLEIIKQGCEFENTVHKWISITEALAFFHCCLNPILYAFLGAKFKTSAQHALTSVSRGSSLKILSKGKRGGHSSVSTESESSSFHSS

Q: Which “inhibition of Nef-M1 induced MMD” value does the source give for c1cc(CN2CCCNCCNCCCNCC2)ccc1CN1CCCNCCNCCCNCC1 [AMD3100] here?
A: inhibited

Q: With Cc1cn([C@H]2C[C@H](N=[N+]=[N-])[C@@H](CO)O2)c(=O)[nH]c1=O [AZT] as the compound, how does the “inhibition of Nef-M1 induced MMD” value read?
A: inactive

Q: Which “inhibition of Nef-M1 induced MMD” value does the source give for maraviroc here?
A: inactive

tested on: NNRTI-resistant viral strain containing the K103N/Y181C mutations; experiment: not given; assay type: cell-based; settings: not given

Q: Which “loss of antiviral activity against K103N/Y181C mutant compared to wild type” value does the source give for O=C1Nc2ccc(Cl)cc2[C@@](C#CC2CC2)(C(F)(F)F)O1 [efavirenz] here?
A: 70 fold

biological target: T1, CCR5 (Homo sapiens, UniProt P51681); experiment: HeLa-C14:JRFL CD4-dependent cell-cell fusion assay; assay type: cell-based; settings: luciferase readout, in words
T1 construct: expressed in transfected cells; host or cells: HeLa-C14
Text: Cell-cell fusion assays measure specifically co-receptor mediated inhibition of gp120-induced fusion in the absence of other viral machinery, and these assays were used to explore the CCR5- and CXCR4-specific antiviral activity. A cell-cell fusion assay was constructed to simulate HIV-1 entry in the absence of other viral machinery. The assay measured fusion of effector cells expressing the JRFL envelope (CCR5-tropic/CD4 dependent) with HeLa-C14 target cells (expressing CD4, CCR5, and CXCR4) using a luciferase readout (FIG. 5A).

T1 sequence (P51681 whole entry, the tested form may be a part): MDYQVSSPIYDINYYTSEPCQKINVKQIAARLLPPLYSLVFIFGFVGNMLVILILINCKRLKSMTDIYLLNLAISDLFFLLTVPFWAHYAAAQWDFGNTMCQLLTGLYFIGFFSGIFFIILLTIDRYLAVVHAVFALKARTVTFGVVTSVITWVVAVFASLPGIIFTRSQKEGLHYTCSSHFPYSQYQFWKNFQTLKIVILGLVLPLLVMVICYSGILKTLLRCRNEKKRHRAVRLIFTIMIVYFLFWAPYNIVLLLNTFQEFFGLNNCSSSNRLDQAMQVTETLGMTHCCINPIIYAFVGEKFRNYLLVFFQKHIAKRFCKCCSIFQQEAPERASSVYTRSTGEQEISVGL

Q: With Cc1ccc(-c2ccc3c(c2)C=C(C(=O)Nc2ccc(C[N+](C)(C)C4CCOCC4)cc2)CCC3)cc1.[Cl-] [TAK-779, reference compound] as the compound, how does the “inhibition of JRFL envelope / HeLa-C14 cell-cell fusion” value read?
A: inhibited fusion

tested on: not listed separately; experiment: MAGI toxicity; settings: human, MAGI cells, TC50, table of synthesized compounds

Q: For c1ccc(CCCC2CCN(Cc3ccccn3)CC2)cc1, which CC50 is on record?
A: > 100 µM

Q: For c1ccc(Cc2cn[nH]c2C2CCN(Cc3ccccc3)CC2)cc1 [1-benzyl-4-(4-benzyl-1H-pyrazol-3-yl)piperidine], which CC50 is on record?
A: > 100 µM

Q: With c1ccc(Cc2cn[nH]c2C2CCN(Cc3ccccn3)CC2)cc1 [2-((4-(4-benzyl-1H-pyrazol-3-yl)piperidin-1-yl)methyl)pyridine] as the compound, how does the CC50 read?
A: > 100 µM

Q: Which CC50 does the source give for FC(F)(F)c1ccc(CN2CCC(c3[nH]ncc3Cc3ccccc3)CC2)cc1 [4-(4-benzyl-1H-pyrazol-3-yl)-1-(4 (trifluoromethyl)benzyl)piperidine] here?
A: 18 µM

Q: Which CC50 does the source give for CS(=O)(=O)c1ccc(CN2CCC(c3[nH]ncc3Cc3ccccc3)CC2)cc1 [4-(4-benzyl-1H-pyrazol-3-yl)-1-(4-(methylsulfonyl)benzyl)piperidine] here?
A: > 100 µM

Q: With Clc1ccc(CN2CCC(c3[nH]ncc3Cc3ccccc3)CC2)cc1 [4-(4-benzyl-1H-pyrazol-3-yl)-1-(4-chlorobenzyl)piperidine] as the compound, how does the CC50 read?
A: 18.6 µM

Q: Which CC50 does the source give for c1ccc(Cc2cn[nH]c2C2CCN(CC3CCCCC3)CC2)cc1 [4-(4-benzyl-1H-pyrazol-3-yl)-1-(cyclohexylmethyl)piperidine] here?
A: 142 µM

Q: For N#Cc1ccc(CN2CCC(c3[nH]ncc3Cc3ccccc3)CC2)cc1 [4-((4-(4-benzyl-1H-pyrazol-3-yl)piperidin-1-yl)methyl)benzonitrile], which CC50 is on record?
A: 60 µM

Q: For c1ccc(Cc2cn[nH]c2C2CCN(Cc3ccc4ccccc4c3)CC2)cc1 [drawing 85, 4-(4-benzyl-1H-pyrazol-3-yl)-1-(naphthalen-2-ylmethyl)piperidine], which CC50 is on record?
A: 16.8 µM

Q: With c1ccc(Cc2cn[nH]c2C2CCN(Cc3cccc4ccccc34)CC2)cc1 [drawing 86, 4-(4-benzyl-1H-pyrazol-3-yl)-1-(naphthalen-1-ylmethyl)piperidine] as the compound, how does the CC50 read?
A: 17.9 µM

Q: For Clc1cnccc1CN1CCC(c2[nH]ncc2Cc2ccccc2)CC1 [drawing 92, 4-((4-(4-benzyl-1H-pyrazol-3-yl)piperidin-1-yl)methyl)-3-chloropyridine], which CC50 is on record?
A: 67 µM

Q: For Clc1cc(CN2CCC(c3[nH]ncc3Cc3ccccc3)CC2)ccn1 [drawing 93, 4-((4-(4-benzyl-1H-pyrazol-3-yl)piperidin-1-yl)methyl)-2-chloropyridine], which CC50 is on record?
A: 34 µM

tested on: HIV-1 IIIB; experiment: HIV-1 MAGI assay, IIIB (CXCR4 / T-tropic); assay type: cell-based; settings: Human immunodeficiency virus 1, IIIB, MAGI; table of synthesized compounds; read-out: X4-IC50
Method: as §1

Q: For c1ccc(CCCC2CCN(Cc3ccccn3)CC2)cc1, which IC50 is on record?
A: 137 µM

Q: Which IC50 does the source give for c1ccc(Cc2cn[nH]c2C2CCN(Cc3ccccc3)CC2)cc1 [1-benzyl-4-(4-benzyl-1H-pyrazol-3-yl)piperidine] here?
A: 13 µM

Q: Which IC50 does the source give for c1ccc(Cc2cn[nH]c2C2CCN(Cc3ccccn3)CC2)cc1 [2-((4-(4-benzyl-1H-pyrazol-3-yl)piperidin-1-yl)methyl)pyridine] here?
A: 24.8 µM

Q: For FC(F)(F)c1ccc(CN2CCC(c3[nH]ncc3Cc3ccccc3)CC2)cc1 [4-(4-benzyl-1H-pyrazol-3-yl)-1-(4 (trifluoromethyl)benzyl)piperidine], which IC50 is on record?
A: 13.2 µM

Q: With CS(=O)(=O)c1ccc(CN2CCC(c3[nH]ncc3Cc3ccccc3)CC2)cc1 [4-(4-benzyl-1H-pyrazol-3-yl)-1-(4-(methylsulfonyl)benzyl)piperidine] as the compound, how does the IC50 read?
A: 1 µM

Q: With Clc1ccc(CN2CCC(c3[nH]ncc3Cc3ccccc3)CC2)cc1 [4-(4-benzyl-1H-pyrazol-3-yl)-1-(4-chlorobenzyl)piperidine] as the compound, how does the IC50 read?
A: 5.33 µM

Q: Which IC50 does the source give for c1ccc(Cc2cn[nH]c2C2CCN(CC3CCCCC3)CC2)cc1 [4-(4-benzyl-1H-pyrazol-3-yl)-1-(cyclohexylmethyl)piperidine] here?
A: 58.5 µM

Q: With N#Cc1ccc(CN2CCC(c3[nH]ncc3Cc3ccccc3)CC2)cc1 [4-((4-(4-benzyl-1H-pyrazol-3-yl)piperidin-1-yl)methyl)benzonitrile] as the compound, how does the IC50 read?
A: 5.3 µM

Q: For c1ccc(Cc2cn[nH]c2C2CCN(Cc3ccc4ccccc4c3)CC2)cc1 [drawing 85, 4-(4-benzyl-1H-pyrazol-3-yl)-1-(naphthalen-2-ylmethyl)piperidine], which IC50 is on record?
A: 4.03 µM

Q: Which IC50 does the source give for c1ccc(Cc2cn[nH]c2C2CCN(Cc3cccc4ccccc34)CC2)cc1 [drawing 86, 4-(4-benzyl-1H-pyrazol-3-yl)-1-(naphthalen-1-ylmethyl)piperidine] here?
A: 6.79 µM

Q: With Clc1cnccc1CN1CCC(c2[nH]ncc2Cc2ccccc2)CC1 [drawing 92, 4-((4-(4-benzyl-1H-pyrazol-3-yl)piperidin-1-yl)methyl)-3-chloropyridine] as the compound, how does the IC50 read?
A: 0.21 µM

Q: For Clc1cc(CN2CCC(c3[nH]ncc3Cc3ccccc3)CC2)ccn1 [drawing 93, 4-((4-(4-benzyl-1H-pyrazol-3-yl)piperidin-1-yl)methyl)-2-chloropyridine], which IC50 is on record?
A: 0.28 µM
